Marks after values point to notes of the source that are not given here.
How the values were obtained:
Type in all cases: in vivo, rat
[1] = test system: Male rats of SD strain; experiment: Serum lipid lowering action of structured lipids in high-fat food, two weeks (Example 6); conditions: High-TG Food (20% fat) with 7.5% structured lipid, 2 weeks
Source text: Influence of arachidonic acid chemically synthesized in Example 2 on serum lipid lowering action of the constituting fatty acid was investigated in a high-fat foods.
Male rats of SD strain of 5 weeks age were divided into eight groups each comprising five rats, acclimatized for one week with a standard solid feed and ingested for two weeks with the experimental food as shown in Table 7 and Table 8 (normal, high-TG, 7.5% PPP, 7.5% PAP, 7.5% PPA, 7.5% 8P8, 7.5% 8A8 and 7.5% 88A). Incidentally, the condition for a high-fat food was that the rate of fat/oil in the feed was made 20%, beef tallow abundant in saturated fatty acid was used as a base and 2% of corn oil were compounded to avoid the deficiency of essential fatty acids. In the control group, an experimental food (high-TG food, 20% fat/oil food) compounded with 18% of […] (20% as a result of addition of 2% of corn oil) was used.

[2] = test system: target gene of PPAR of jejunum; experiment: Influence of structured lipid on expression of target gene of PPAR of jejunum (Example 5); conditions: rats, 10% structured lipid food, compared with PPP food control group
Source text: (§1) Influence of the structured lipid where arachidonic acid chemically synthesized in Example 2 as a constituting fatty acid on expression of lipid metabolism-related gene was investigated using rats.
(§2) Male rats of SD strain of 5 weeks age were divided into four groups each comprising five rats, acclimatized for one week with a standard solid feed and ingested for two weeks with an experimental food (10% PPA and 10% PAP; Table 5) compounded with 10% of arachidonic acid-containing structured lipid (PPA or PAP). In the control group, an experimental food (10% PPP) compounded with 10% of PPP was used. In ingestion of the food, a pair-feeding was conducted and body weight was measured every day.
Influence of structured lipid on expression of target gene of PPAR of jejunum is shown (FIG. 4). From PPA, each one molecule of palmitic acid and arachidonic acid is dissociated and absorbed by the action of pancreatic lipase specific to 1,3-positions and arachidonic acid having a particularly strong PPAR ligand activity acts as a PPARα ligand in small intestine and, therefore, expressed amount of target gene of PPAR increased in a group of 10% PPA food as compared with a PPP food group which is a control group. […]

[3] = test system: Male rats of SD strain; experiment: Ingestion of experimental food with 10% structured lipid for two weeks: body weight, liver weight, serum lipid concentration (Example 5); conditions: 10% structured lipid in experimental food, 2 weeks
Source text: as §1, §2

[4] = test system: PPARα mRNA of liver; experiment: Influence of structured lipid on liver PPARα mRNA expression (Example 5); conditions: rats, 10% PAP food, 2 weeks
Source text: as §1, §2
Two molecules of palmitic acid and one molecule of 2-AG incorporated into epidermal cells of small intestine are reconstructed to a triglyceride(s) (in that case, although there is a possibility of bonding of other inherent fatty acids existing in the epidermal cells of the small intestine to 1,3-positions, arachidonic acid bonded to 2-position is retained), incorporated into chylomicron, transferred to peripheral tissues together with secretion of lymph and blood flow and finally incorporated into liver.

SMILES	Serum Total Cholesterol Concn [1]	Serum Triglyceride(s) Concn [1]	Expressed amount of target gene of PPAR in jejunum [2]	Serum Total Cholesterol Concn [3]	Serum Triglyceride(s) Concn [3]	Expressed amount of PPARα mRNA of liver [4]
CCCCC/C=C\C/C=C\C/C=C\C/C=C\CCCC(=O)OC(COC(=O)CCCCCCC)COC(=O)CCCCCCC [8A8, 1,3-dioctanoyl-2-arachidonoyl glyceride]	85.6 ± 2.5^b μmol/dl	63.3 ± 4.1^a μmol/dl	–	–	–	–
CCCCC/C=C\C/C=C\C/C=C\C/C=C\CCCC(=O)OCC(COC(=O)CCCCCCCCCCCCCCC)OC(=O)CCCCCCCCCCCCCCC (centres unmarked) [PPA, 1(3),2-dipalmitoyl-3(1)-arachidonoyl glyceride]	92.4 ± 4.9^a μmol/dl	93.1 ± 1.3^a μmol/dl	increased	150 ± 16.6^b μmol/dl	173 ± 6.6^b μmol/dl	–
CCCCC/C=C\C/C=C\C/C=C\C/C=C\CCCC(=O)OCC(COC(=O)CCCCCCC)OC(=O)CCCCCCC (centres unmarked) [88A, 1(3),2-dioctanoyl-3(1)-arachidonoyl glyceride]	92.9 ± 2.9^a μmol/dl	83.1 ± 3.6^a μmol/dl	–	–	–	–
CCCCCCCCCCCCCCCC(=O)OCC(COC(=O)CCCCCCCCCCCCCCC)OC(=O)CCCCCCCCCCCCCCC [PPP, reference compound]	104.3 ± 5.9^b μmol/dl	109.2 ± 6.8^b μmol/dl	–	201 ± 9.2^a μmol/dl	316 ± 64.3^b μmol/dl	–
CCCCC/C=C\C/C=C\C/C=C\C/C=C\CCCC(=O)OC(COC(=O)CCCCCCCCCCCCCCC)COC(=O)CCCCCCCCCCCCCCC [PAP, 1,3-dipalmitoyl-2-arachidonoyl glyceride]	91.7 ± 3.3^a μmol/dl	80.4 ± 3.9^a μmol/dl	–	178 ± 15.3^ab μmol/dl	174 ± 7.5^b μmol/dl	significantly increased
CCCCCCCCCCCCCCCC(=O)OC(COC(=O)CCCCCCC)COC(=O)CCCCCCC [8P8, 1,3-capryloyl-2-palmitoyl-glyceride, reference compound]	99.7 ± 4.2^b μmol/dl	101.8 ± 5.3^b μmol/dl	–	–	–	–

Source: US8236854B2, “Lipid-improving agent and composition containing lipid-improving agent” (Suntory Holdings Limited, priority 2003, dated 2012)
